Activity calls are given as the source filed them. The rule behind the calls is not given here.
Key:
Glucocorticoid receptor [1] = target: T1, Glucocorticoid receptor (Homo sapiens, UniProt P04150); assay: Transrepression activity at glucocorticoid receptor in HFF assessed as inhibition of IL-1-induced IL-6 production after 18 to 24 hrs by ELISA; format: cell-based
T1 sequence (P04150 whole entry): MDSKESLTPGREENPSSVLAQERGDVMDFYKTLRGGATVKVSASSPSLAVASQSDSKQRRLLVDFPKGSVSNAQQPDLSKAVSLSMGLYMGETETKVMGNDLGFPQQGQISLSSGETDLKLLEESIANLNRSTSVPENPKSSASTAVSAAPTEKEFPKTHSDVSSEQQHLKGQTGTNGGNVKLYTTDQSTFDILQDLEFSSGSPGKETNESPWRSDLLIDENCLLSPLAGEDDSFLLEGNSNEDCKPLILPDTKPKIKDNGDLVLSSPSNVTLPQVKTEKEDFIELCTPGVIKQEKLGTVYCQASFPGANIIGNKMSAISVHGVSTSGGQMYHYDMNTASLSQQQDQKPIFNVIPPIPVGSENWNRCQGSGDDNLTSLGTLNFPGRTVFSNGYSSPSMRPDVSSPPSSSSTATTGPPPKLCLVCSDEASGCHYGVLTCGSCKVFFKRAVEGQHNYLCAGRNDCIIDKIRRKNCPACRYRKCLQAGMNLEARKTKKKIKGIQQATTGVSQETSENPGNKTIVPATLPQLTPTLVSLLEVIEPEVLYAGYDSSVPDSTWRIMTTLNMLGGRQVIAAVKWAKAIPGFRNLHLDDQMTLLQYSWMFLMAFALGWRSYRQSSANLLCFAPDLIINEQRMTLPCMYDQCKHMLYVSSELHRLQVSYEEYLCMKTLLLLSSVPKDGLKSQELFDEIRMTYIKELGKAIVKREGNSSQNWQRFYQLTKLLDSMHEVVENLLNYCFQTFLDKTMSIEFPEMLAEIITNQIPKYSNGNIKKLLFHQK

Glucocorticoid receptor [2] = target: T1, Glucocorticoid receptor; assay: Binding affinity to glucocorticoid receptor expressed in baculovirus-infected insect cells using tetramethylrhodamine labeled Dexamethasone by fluorescence polarization microplate assay
Mus musculus [3] = assay: Antiinflammatory effect in collagen and Freund's complete adjuvant-induced B10.RIII mouse arthritis model assessed as inhibition of disease progression at 100 mg/kg, po qd for 5 weeks; format: functional, organism-based; set-up: dose 100 mg/kg
Glucocorticoid receptor [4] = target: T1, Glucocorticoid receptor; assay: Transactivation activity at glucocorticoid receptor in human HeLa cells transfected with luciferase gene linked to MMTV promoter by luciferase assay; format: cell-based
[5] = Half life in Sprague-Dawley rat at 2 mg/kg, iv; format: ADME, organism-based; set-up: dose 2 mg/kg, route intravenous; settings: in vivo
Mus musculus [6] = assay: Antiinflammatory effect in collagen and Freund's complete adjuvant-induced B10.RIII mouse arthritis model assessed as inhibition of disease progression administered as po qd for 5 weeks; format: functional; settings: 840 h
[7] = AUC (infinity) in Sprague-Dawley rat at 30 mg/kg, po; format: ADME, organism-based, Plasma; set-up: time infinity, dose 30 mg/kg, route oral; settings: Sprague-Dawley, plasma
[8] = target: T2, Mineralocorticoid receptor (Homo sapiens, UniProt P08235); assay: Binding affinity to mineralocorticoid receptor expressed in baculovirus-infected insect cells using tetramethylrhodamine labeled Dexamethasone by fluorescence polarization microplate assay
T2 sequence (P08235 whole entry): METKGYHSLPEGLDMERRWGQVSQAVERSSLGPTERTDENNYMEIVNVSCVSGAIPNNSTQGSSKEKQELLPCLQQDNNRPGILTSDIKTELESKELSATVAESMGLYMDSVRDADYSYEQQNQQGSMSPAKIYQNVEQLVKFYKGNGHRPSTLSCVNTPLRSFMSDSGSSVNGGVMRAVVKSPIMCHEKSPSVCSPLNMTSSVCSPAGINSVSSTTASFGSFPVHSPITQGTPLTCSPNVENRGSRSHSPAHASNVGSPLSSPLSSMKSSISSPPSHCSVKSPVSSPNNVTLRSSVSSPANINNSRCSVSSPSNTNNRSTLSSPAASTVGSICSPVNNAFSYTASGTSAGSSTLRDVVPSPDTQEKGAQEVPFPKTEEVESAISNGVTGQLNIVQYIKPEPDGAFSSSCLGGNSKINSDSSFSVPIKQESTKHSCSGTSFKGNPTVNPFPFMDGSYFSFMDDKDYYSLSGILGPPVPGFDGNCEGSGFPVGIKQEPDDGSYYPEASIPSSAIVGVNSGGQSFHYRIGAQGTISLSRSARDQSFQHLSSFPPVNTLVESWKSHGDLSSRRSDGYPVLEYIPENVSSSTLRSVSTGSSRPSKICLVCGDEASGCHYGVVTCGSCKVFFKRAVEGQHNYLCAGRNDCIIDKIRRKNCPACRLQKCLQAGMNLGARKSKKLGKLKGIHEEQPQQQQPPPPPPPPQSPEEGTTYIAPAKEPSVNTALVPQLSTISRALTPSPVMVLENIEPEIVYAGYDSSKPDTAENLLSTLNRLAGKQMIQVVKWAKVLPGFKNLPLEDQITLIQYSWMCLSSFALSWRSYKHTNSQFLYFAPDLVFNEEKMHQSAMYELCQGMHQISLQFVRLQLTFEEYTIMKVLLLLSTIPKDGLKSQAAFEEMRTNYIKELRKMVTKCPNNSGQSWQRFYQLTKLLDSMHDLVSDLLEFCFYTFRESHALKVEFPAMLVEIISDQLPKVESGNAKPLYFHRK

Mus musculus [9] = assay: Toxicity in B10.RIII mouse assessed as increase of serum insulin level at 100 mg/kg, po qd for 5 weeks; format: organism-based; set-up: dose 100 mg/kg, route oral; settings: in vivo, 840 h
[10] = Volume of distribution at steady state in Sprague-Dawley rat at 2 mg/kg, iv; format: ADME, organism-based; set-up: dose 2 mg/kg, route intravenous; settings: in vivo, read-out: Vdss
[11] = Cmax in Sprague-Dawley rat at 30 mg/kg, po; format: ADME, organism-based; set-up: dose 30 mg/kg, route oral; settings: in vivo
Mus musculus [12] = assay: Toxicity in B10.RIII mouse assessed as increase of body fat content at 100 mg/kg, po qd for 5 weeks; format: organism-based; set-up: dose 100 mg/kg, route oral; settings: in vivo, 840 h
[13] = Clearance in Sprague-Dawley rat at 2 mg/kg, iv; format: ADME, organism-based; set-up: dose 2 mg/kg, route intravenous; settings: in vivo
[14] = Oral bioavailability in Sprague-Dawley rat at 30 mg/kg; format: ADME, organism-based; settings: Sprague-Dawley, in vivo
Mus musculus [15] = assay: Antiinflammatory activity in po dosed BALB/c mouse assessed as reduction of LPS-induced plasma TNFalpha level administered 1 hr before LPS challenge by ELISA; format: functional
Glucocorticoid receptor [16] = target: T1, Glucocorticoid receptor; assay: Transactivation activity at glucocorticoid receptor in HFF assessed as induction of aromatase activity after 18 to 24 hrs by ELISA; format: cell-based
Progesterone receptor = target: T3, Progesterone receptor (Homo sapiens, UniProt P06401); assay: Binding affinity to progesterone receptor expressed in baculovirus-infected insect cells using tetramethylrhodamine labeled RU-486 by fluorescence polarization microplate assay
T3 sequence (P06401 whole entry): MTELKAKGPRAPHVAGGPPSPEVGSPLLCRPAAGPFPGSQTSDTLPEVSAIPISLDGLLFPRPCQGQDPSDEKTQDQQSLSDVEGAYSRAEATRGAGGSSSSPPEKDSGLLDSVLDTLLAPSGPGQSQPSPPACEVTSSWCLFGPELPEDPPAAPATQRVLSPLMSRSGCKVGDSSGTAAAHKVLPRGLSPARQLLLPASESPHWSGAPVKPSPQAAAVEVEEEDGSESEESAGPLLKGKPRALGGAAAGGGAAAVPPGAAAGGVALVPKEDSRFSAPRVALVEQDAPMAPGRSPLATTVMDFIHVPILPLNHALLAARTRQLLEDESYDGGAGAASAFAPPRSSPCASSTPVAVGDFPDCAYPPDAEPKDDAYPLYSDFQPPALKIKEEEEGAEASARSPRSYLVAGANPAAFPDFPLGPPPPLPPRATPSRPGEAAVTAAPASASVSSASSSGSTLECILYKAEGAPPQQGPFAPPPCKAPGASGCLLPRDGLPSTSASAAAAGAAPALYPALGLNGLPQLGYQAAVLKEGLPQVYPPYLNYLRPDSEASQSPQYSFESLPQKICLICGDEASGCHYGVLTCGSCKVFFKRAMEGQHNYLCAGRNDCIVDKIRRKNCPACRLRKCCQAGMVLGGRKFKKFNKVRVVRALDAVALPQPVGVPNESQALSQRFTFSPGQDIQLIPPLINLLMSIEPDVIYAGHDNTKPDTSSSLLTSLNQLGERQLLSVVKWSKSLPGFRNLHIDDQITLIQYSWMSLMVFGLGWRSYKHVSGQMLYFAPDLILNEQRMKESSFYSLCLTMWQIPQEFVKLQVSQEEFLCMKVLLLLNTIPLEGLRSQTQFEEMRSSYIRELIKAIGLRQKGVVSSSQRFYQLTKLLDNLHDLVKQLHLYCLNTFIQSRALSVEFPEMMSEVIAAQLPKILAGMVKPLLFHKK

[17] = Half life in Sprague-Dawley rat at 5 mg/kg, iv; format: ADME, organism-based; set-up: dose 5 mg/kg, route intravenous; settings: in vivo
[18] = Tmax in Sprague-Dawley rat at 30 mg/kg, po; format: ADME, organism-based; set-up: dose 30 mg/kg, route oral; settings: in vivo
[19] = Volume of distribution at steady state in Sprague-Dawley rat at 5 mg/kg, iv; format: ADME, organism-based; set-up: dose 5 mg/kg, route intravenous; settings: in vivo, read-out: Vdss
[20] = Clearance in Sprague-Dawley rat at 5 mg/kg, iv; format: ADME, organism-based; set-up: dose 5 mg/kg, route intravenous; settings: in vivo
Mus musculus [21] = assay: Antiinflammatory effect in collagen and Freund's complete adjuvant-induced B10.RIII mouse arthritis model assessed as inhibition of disease progression at 30 mg/kg, po qd for 5 weeks; format: functional; settings: 840 h
Mus musculus [22] = assay: Toxicity in collagen and Freund's complete adjuvant-induced B10.RIII mouse arthritis model assessed as increase of free fatty acids level at 30 mg/kg, po qd for 5 weeks; format: organism-based; set-up: dose 30 mg/kg, route oral; settings: in vivo, 840 h
Mus musculus [23] = assay: Toxicity in B10.RIII mouse assessed as increase of body fat content at 30 mg/kg, po qd for 5 weeks; format: organism-based; set-up: dose 30 mg/kg, route oral; settings: in vivo, 840 h
Mus musculus [24] = assay: Toxicity in collagen and Freund's complete adjuvant-induced B10.RIII mouse arthritis model assessed as increase of triglyceride level at 30 mg/kg, po qd for 5 weeks; format: organism-based; set-up: dose 30 mg/kg, route oral; settings: in vivo, 840 h
Mus musculus [25] = assay: Toxicity in B10.RIII mouse assessed as increase of triglyceride level at 30 mg/kg, po qd for 5 weeks; format: organism-based; set-up: dose 30 mg/kg, route oral; settings: in vivo, 840 h
Mus musculus [26] = assay: Toxicity in collagen and Freund's complete adjuvant-induced B10.RIII mouse arthritis model assessed as increase of body fat content at 30 mg/kg, po qd for 5 weeks; format: organism-based; set-up: dose 30 mg/kg, route oral; settings: in vivo, 840 h
Mus musculus [27] = assay: Toxicity in collagen and Freund's complete adjuvant-induced B10.RIII mouse arthritis model assessed as increase of serum insulin level at 30 mg/kg, po qd for 5 weeks; format: organism-based; set-up: dose 30 mg/kg, route oral; settings: in vivo, 840 h
Mus musculus [28] = assay: Toxicity in B10.RIII mouse assessed as increase of serum insulin level at 30 mg/kg, po qd for 5 weeks; format: organism-based; set-up: dose 30 mg/kg, route oral; settings: in vivo, 840 h

Row | IC50 (Glucocorticoid receptor [1]) | IC50 (Glucocorticoid receptor [2]) | IC50 (Glucocorticoid receptor [4]) | AUC(0-inf) [7] | IC50 [8] | Cmax [11] | bioavailability [14] | EC50 (Glucocorticoid receptor [16]) | IC50 (Progesterone receptor) | SMILES | ED50 (Mus musculus [6]) | other results
1 | 20 nM | 8 nM | > 2000 nM | 5930 ng·h/mL | > 2000 nM | 422 ng/mL | 97% | > 2000 nM | > 2000 nM | COc1ccc(-c2cncnc2)cc1C(C)(C)C[C@@](O)(Cc1cc2ccncc2[nH]1)C(F)(F)F | 30 mg/kg | Activity (Mus musculus [3]): Active; half-life [5]: 1 h; Activity (Mus musculus [9]): Non-toxic; Vd [10]: 6.6 L/kg; Activity (Mus musculus [12]): Non-toxic; clearance [13]: 83 mL/min/kg; ED50 (Mus musculus [15]): < 1 mg/kg
2 | 6 nM | 1.4 nM | 20 nM | 1740 ng·h/mL | 380 nM | 427 ng/mL | 21% | 10 nM | 1150 nM | COc1ccc(F)cc1C(C)(C)C[C@@](O)(Cc1cc2ccncc2[nH]1)C(F)(F)F | – | half-life [17]: 1.7 h; Tmax [18]: 2 h; Vd [19]: 8.7 L/kg; clearance [20]: 61 mL/min/kg
3 | – | – | – | – | 44 nM | – | – | – | – | C[C@]12C=CC(=O)C=C1CC[C@@H]1[C@@H]2[C@@H](O)C[C@@]2(C)[C@H]1CC[C@]2(O)C(=O)CO [PREDNISOLONE] | 10 mg/kg | inhibition in vivo at 30 mg/kg (Mus musculus [21]): 77%; Activity (Mus musculus [22]): Non-toxic; Activity (Mus musculus [23]): Toxic; Activity (Mus musculus [24]): Toxic; Activity (Mus musculus [25]): Toxic; Activity (Mus musculus [26]): Non-toxic; Activity (Mus musculus [27]): Non-toxic; Activity (Mus musculus [28]): Toxic

Source: ChEMBL document CHEMBL1250518, “Nonsteroidal dissociated glucocorticoid agonists containing azaindoles as steroid A-ring mimetics” (J Med Chem, 2010)
